Key:
[1] = biological target: T1, SUCR1 mutants (variant named in the endpoint) (Homo sapiens, UniProt Q9BXA5, F285A/L102F); assay: Calcium mobilization assay, SUCR1 mutants in HEK293 stably expressing Gα16; assay type: cell-based; conditions: SUCR1 F285A-L102F
T1 construct: The full-length human SUCR1 and mutations were fused after the HA signal peptide and Flag tag; HA signal peptide (N); Flag (N); expressed in transfected cells; host or cells: HEK293 stably expressing Gα16 (pcDNA6.0, transient electroporation)
T1 sequence (Q9BXA5 1-334 L102F/F285A): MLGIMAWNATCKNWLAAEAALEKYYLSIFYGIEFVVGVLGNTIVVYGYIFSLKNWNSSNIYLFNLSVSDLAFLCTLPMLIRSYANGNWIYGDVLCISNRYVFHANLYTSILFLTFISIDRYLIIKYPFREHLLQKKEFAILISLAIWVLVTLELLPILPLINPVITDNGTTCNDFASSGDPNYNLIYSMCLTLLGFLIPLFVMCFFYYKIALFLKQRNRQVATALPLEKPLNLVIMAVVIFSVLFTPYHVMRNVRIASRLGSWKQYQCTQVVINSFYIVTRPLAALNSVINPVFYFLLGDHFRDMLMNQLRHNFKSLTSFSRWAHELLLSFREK
Protocol: (§1) The full-length human SUCR1 and mutations were fused after the HA signal peptide and Flag tag. The constructs were cloned into pcDNA6.0 vector for HEK293 system.
(§2) HEK293 cells were obtained from ATCC (Manassas, VA, USA) and cultured in DMEM supplemented with 10% (v/v) FBS, 100 mg/L penicillin, and 100 mg/L streptomycin in 5% CO2 at 37 °C. For transient transfection, ~2.5 × 10^6 cells were mixed with 2 µg plasmids in 200 µL transfection buffer, and electroporation was carried out with a Scientz-2C electroporation apparatus (Scientz Biotech, Ningbo, China). The experiments were carried out 24 h after transfection. HEK293 cell lines stably expressing Gα16 were constructed by our laboratory.
(§3) For OXGR1, plasmids were transfected into HEK293 (other receptors were transfected into HEK293 stably expressing Gα16) and seeded at a density of 4 × 10^4 per well into 96-well culture plates and incubated for 24 h at 37 °C in 5% CO2. The next day, Cells were incubated with 2 μM/L Fluo-4 AM in HBSS supplemented with 5.6 mM/L D-glucose and 250 μM/L sulfinpyrazone at 37 °C for 45 min. […] Three independent measurements were repeated, i.e., three different transfections, with three technical replicates performed for each experiment. EC50 and Emax values for each curve were calculated by Prism 8.0 software (GraphPad Software).

[2] = tested on: OXGR1 mutants (variant named in the endpoint); assay: Calcium mobilization assay, OXGR1 mutants in HEK293; conditions: for Emax: each ligand normalized to WT (100%);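 on all read-outs here: human OXGR1 variants transiently expressed in HEK293 cells, with intracellular calcium read out by Fluo-4 AM fluorescence, measured 24 h after transfection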
Protocol: as §1, §2, §3

Structure (SMILES): O=C(O)CCC(=O)O [SUC, succinate]
- EC50 [1]: 460 ± 80 µM
- EC50 ([2]; OXGR1 D185A): > 1000 µM
- Emax ([2]; OXGR1 D185A): -4.4± 9 WT%
- EC50 ([2]; OXGR1 E97A): 1580 ± 260 µM
- Emax ([2]; OXGR1 E97A): 74± 6 WT%
- EC50 ([2]; OXGR1 F113A): > 1000 µM
- Emax ([2]; OXGR1 F113A): -0.39± 2 WT%
- EC50 ([2]; OXGR1 F113W): 760 ± 210 µM
- increase in potency by F113W mutation ([2]; OXGR1 F113W versus WT): no significant change
- Emax ([2]; OXGR1 F113W): 82± 5 WT%
- EC50 ([2]; OXGR1 F257A): > 10000 µM
- Emax ([2]; OXGR1 F257A): 29± 1 WT%
- EC50 ([2]; OXGR1 F257Y): 81 ± 4 µM
- Emax ([2]; OXGR1 F257Y): 76± 2 WT%
- EC50 ([2]; OXGR1 H114A): 3600 ± 600 µM
- Emax ([2]; OXGR1 H114A): 84± 4 WT%
- EC50 ([2]; OXGR1 H114L): > 1000 µM
- Emax ([2]; OXGR1 H114L): 1.9± 3 WT%
- EC50 ([2]; OXGR1 H281A): 4500 ± 1300 µM
- Emax ([2]; OXGR1 H281A): 87±10 WT%
- EC50 ([2]; OXGR1 I172A): > 1000 µM
- Emax ([2]; OXGR1 I172A): 0.013± 2 WT%
- EC50 ([2]; OXGR1 L36A): > 1000 µM
- Emax ([2]; OXGR1 L36A): 6.1± 0.2 WT%
- EC50 ([2]; OXGR1 L89A): > 1000 µM
- Emax ([2]; OXGR1 L89A): 2.8± 0.9 WT%
- EC50 ([2]; OXGR1 L186A): > 1000 µM
- Emax ([2]; OXGR1 L186A): -0.43± 1 WT%
- EC50 ([2]; OXGR1 L186F): 770 ± 60 µM
- Emax ([2]; OXGR1 L186F): 75± 5 WT%
- EC50 ([2]; OXGR1 L299P): > 1000 µM
- Emax ([2]; OXGR1 L299P): 10.5±3 WT%
- activation of OXGR1 L299P ([2]; OXGR1 L299P, in words): abolished
- EC50 ([2]; OXGR1 M168I): 1100 ± 60 µM
- Emax ([2]; OXGR1 M168I): 88± 2 WT%
- EC50 ([2]; OXGR1 N28A): 300 ± 50 µM
- Emax ([2]; OXGR1 N28A): 94± 0.8 WT%
- EC50 ([2]; OXGR1 R110A): > 1000 µM
- Emax ([2]; OXGR1 R110A): 7.0± 1 WT%
- EC50 ([2]; OXGR1 R110E): > 1000 µM
- Emax ([2]; OXGR1 R110E): 8.9± 5 WT%
- EC50 ([2]; OXGR1 R110Q): > 1000 µM
- Emax ([2]; OXGR1 R110Q): 1.7± 2 WT%
- EC50 ([2]; OXGR1 R177A): 370 ± 70 µM
- Emax ([2]; OXGR1 R177A): 89± 6 WT%
- EC50 ([2]; OXGR1 R264A): > 10000 µM
- Emax ([2]; OXGR1 R264A): 57± 5 WT%
- EC50 ([2]; OXGR1 R268A): > 1000 µM
- Emax ([2]; OXGR1 R268A): 6.3± 4 WT%
- EC50 ([2]; OXGR1 R288A): > 1000 µM
- EC50 ([2]; OXGR1 R288E): > 1000 µM
- Emax ([2]; OXGR1 R288E): -16±0.6 WT%
- EC50 ([2]; OXGR1 R288Q): > 1000 µM
- EC50 ([2]; OXGR1 Y40A): > 1000 µM
- Emax ([2]; OXGR1 Y40A): -1.5± 2 WT%
- EC50 ([2]; OXGR1 Y93A): > 1000 µM
- Emax ([2]; OXGR1 Y93A): 5.5± 3 WT%
- EC50 ([2]; OXGR1 Y284A): > 1000 µM
- Emax ([2]; OXGR1 Y284A): 4.1±2 WT%

— PMC13372822 (The EMBO Journal, 2026)
